Source: patent US6379670B1, “Methods for treatment of multiple sclerosis using peptide analogs of human myelin basic protein” (Neurocrine Biosciences, Inc., priority 1994, dated 2002)
Non-standard residues stand in square brackets, D forms with d. No end group written: not given here.

Test system: NBI-5788-reactive or MBP-reactive T cell lines from MS patients
Experiment: Cross-reactivity of T cell lines (TCL) from MS patients, 3H-thymidine proliferation
Format: cell-based, human
Experimental: To evaluate the degree of NBI-5788-specific reactivity induced by NBI-5788 treatment, we determined whether NBI-5788-reactive T cell lines generated from untreated or NBI-5788-treated patients cross-reacted with whole MBP or MBP peptide 83-99. T cell lines were generated from positive cultures in the frequency analysis by an additional cycle of co-culture with antigen. Specificity of positive lines was tested by culturing 2×10^4 T cells/well in triplicate with whole MBP, MBP83-99, NBI-5788 or medium alone in the presence of 10^5 APCs in a final volume of 200 μl/well. Two days later supernatants were pooled from replicate wells and frozen at −80° C. Wells were then pulsed with [^3H]-thymidine (1 μCi/well) for the final 18 hours of culture.

[1] = patient MS-1, dose 20 mg, TCL 4

## MBP(83-99) (83E>a, 84N>K, 89F>L, and 91K>A) ([dA]KPVVHLFANIVTPRTP) [NBI-5788]
1 of 35 TCL
  whole MBP-reactive TCL from treated patients cross-reacting with NBI-5788: 2.9%
1 of 43 TCL
  NBI-5788-reactive TCL from treated patients cross-reacting with whole MBP: 2.3%
2 of 43 TCL
  NBI-5788-reactive TCL from treated patients cross-reacting with both MBP83-99 and whole MBP: 4.7%
3 of 35 TCL
  whole MBP-reactive TCL from treated patients cross-reacting with MBP83-99 and NBI-5788: 8.6%
6 of 35 TCL
  whole MBP-reactive TCL from treated patients cross-reacting with MBP-83-99: 17.1%
12 of 43 TCL
  NBI-5788-reactive TCL from treated patients cross-reacting with MBP83-99: 27.9%
Patient MS-1, dose 20 mg, TCL 2
  proliferative response of MBP-reactive TCL to antigen: 6,090 ± 102
[1]
  proliferative response of MBP-reactive TCL to antigen: 4,164 ± 123
  proliferative response of NBI-5788-reactive TCL to antigen: 4,112 ± 349
Patient MS-1, dose 20 mg, TCL 5
  proliferative response of MBP-reactive TCL to antigen: 3,115 ± 56
Patient MS-1, dose 20 mg, TCL 10
  proliferative response of MBP-reactive TCL to antigen: 2,794 ± 152
Patient MS-1, dose 20 mg, TCL 14
  proliferative response of MBP-reactive TCL to antigen: 15,780 ± 214
Patient MS-1, dose 20 mg, TCL 26
  proliferative response of MBP-reactive TCL to antigen: 2,559 ± 74
Patient MS-1, dose 20 mg, TCL 36
  proliferative response of NBI-5788-reactive TCL to antigen: 18,259 ± 2011
Patient MS-1, dose 20 mg, TCL 45
  proliferative response of MBP-reactive TCL to antigen: 2,559 ± 637
Patient MS-2, dose 20 mg, TCL 14
  proliferative response of MBP-reactive TCL to antigen: 2,566 ± 421
Patient MS-3, Pretreat., TCL 9
  proliferative response of MBP-reactive TCL to antigen: 6,468 ± 586
Patient MS-3, dose 20 mg, TCL 2
  proliferative response of NBI-5788-reactive TCL to antigen: 19,315 ± 1,310
Patient MS-3, dose 20 mg, TCL 4
  proliferative response of NBI-5788-reactive TCL to antigen: 50,630 ± 11,709
Patient MS-3, dose 20 mg, TCL 18
  proliferative response of NBI-5788-reactive TCL to antigen: 10,308 ± 1,283
Patient MS-3, dose 20 mg, TCL 30
  proliferative response of NBI-5788-reactive TCL to antigen: 48,278 ± 1,070
Patient MS-4, dose 20 mg, TCL 7
  proliferative response of MBP-reactive TCL to antigen: 7,492 ± 716
Patient MS-4, dose 20 mg, TCL 18
  proliferative response of NBI-5788-reactive TCL to antigen: 26,017 ± 802
Patient MS-5, dose 20 mg, TCL 15
  proliferative response of NBI-5788-reactive TCL to antigen: 32,597 ± 1,856
Patient MS-5, dose 20 mg, TCL 39
  proliferative response of NBI-5788-reactive TCL to antigen: 24,326 ± 3,724
Patient MS-5, dose 20 mg, TCL 43
  proliferative response of NBI-5788-reactive TCL to antigen: 16,726 ± 1,121
Patient MS-6, dose 10 mg, TCL 22
  proliferative response of NBI-5788-reactive TCL to antigen: 43,085 ± 1,376
Patient MS-6, dose 10 mg, TCL 38
  proliferative response of NBI-5788-reactive TCL to antigen: 24,195 ± 613
Patient MS-7, dose 5 mg, TCL 12
  proliferative response of NBI-5788-reactive TCL to antigen: 17,749 ± 1,784
Patient MS-7, dose 5 mg, TCL 28
  proliferative response of NBI-5788-reactive TCL to antigen: 3,505 ± 1,446
Patient MS-7, dose 5 mg, TCL 46
  proliferative response of MBP-reactive TCL to antigen: 1,298 ± 113
Patient MS-8, Placebo, TCL 26
  proliferative response of MBP-reactive TCL to antigen: 944 ± 259
Patient MS-8, Placebo, TCL 28
  proliferative response of MBP-reactive TCL to antigen: 1,437 ± 97
Patient MS-8, Placebo, TCL 38
  proliferative response of MBP-reactive TCL to antigen: 16,931 ± 1938
Patient MS-8, Pretreat., TCL 22
  proliferative response of MBP-reactive TCL to antigen: 2,636 ± 270
Patient MS-8, Pretreat., TCL 31
  proliferative response of MBP-reactive TCL to antigen: 936 ± 123
Patient MS-8, Pretreat., TCL 47
  proliferative response of MBP-reactive TCL to antigen: 3,448 ± 1,980
